Counter-ions that a name gives are not always drawn.
Experiments:
[1] = molecular target: Met (phospho-Met, HGF-stimulated PC-3 prostate cancer cells) (Homo sapiens (Human), UniProt P08581); test: Met autophosphorylation ELISA in PC-3 cells (Example F); format: cell-based; conditions: cellular activity; Met autophosphorylation ELISA in PC-3 cells; read-out: c-Met IC50
Method in brief: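 Sandwich ELISA for phospho-Met (panTyr) in PC-3 lysates. Cells starved 3 h serum-free, compound 1 h (8-pt curve, 0.3% DMSO), HGF 100 ng/mL 10 min. 100% = HGF + DMSO; 0% = HGF + reference inhibitor. IC50 by 4-parameter fit.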

[2] = molecular target: KDR (phospho-KDR, VEGF165-stimulated HUVEC cells) (Homo sapiens (Human), UniProt P35968); test: KDR autophosphorylation ELISA in HUVEC cells (Example G); format: cell-based; conditions: cellular activity; KDR autophosphorylation ELISA in HUVEC cells
Sequence of KDR (phospho-KDR, VEGF165-stimulated HUVEC cells) (P35968 20-1356): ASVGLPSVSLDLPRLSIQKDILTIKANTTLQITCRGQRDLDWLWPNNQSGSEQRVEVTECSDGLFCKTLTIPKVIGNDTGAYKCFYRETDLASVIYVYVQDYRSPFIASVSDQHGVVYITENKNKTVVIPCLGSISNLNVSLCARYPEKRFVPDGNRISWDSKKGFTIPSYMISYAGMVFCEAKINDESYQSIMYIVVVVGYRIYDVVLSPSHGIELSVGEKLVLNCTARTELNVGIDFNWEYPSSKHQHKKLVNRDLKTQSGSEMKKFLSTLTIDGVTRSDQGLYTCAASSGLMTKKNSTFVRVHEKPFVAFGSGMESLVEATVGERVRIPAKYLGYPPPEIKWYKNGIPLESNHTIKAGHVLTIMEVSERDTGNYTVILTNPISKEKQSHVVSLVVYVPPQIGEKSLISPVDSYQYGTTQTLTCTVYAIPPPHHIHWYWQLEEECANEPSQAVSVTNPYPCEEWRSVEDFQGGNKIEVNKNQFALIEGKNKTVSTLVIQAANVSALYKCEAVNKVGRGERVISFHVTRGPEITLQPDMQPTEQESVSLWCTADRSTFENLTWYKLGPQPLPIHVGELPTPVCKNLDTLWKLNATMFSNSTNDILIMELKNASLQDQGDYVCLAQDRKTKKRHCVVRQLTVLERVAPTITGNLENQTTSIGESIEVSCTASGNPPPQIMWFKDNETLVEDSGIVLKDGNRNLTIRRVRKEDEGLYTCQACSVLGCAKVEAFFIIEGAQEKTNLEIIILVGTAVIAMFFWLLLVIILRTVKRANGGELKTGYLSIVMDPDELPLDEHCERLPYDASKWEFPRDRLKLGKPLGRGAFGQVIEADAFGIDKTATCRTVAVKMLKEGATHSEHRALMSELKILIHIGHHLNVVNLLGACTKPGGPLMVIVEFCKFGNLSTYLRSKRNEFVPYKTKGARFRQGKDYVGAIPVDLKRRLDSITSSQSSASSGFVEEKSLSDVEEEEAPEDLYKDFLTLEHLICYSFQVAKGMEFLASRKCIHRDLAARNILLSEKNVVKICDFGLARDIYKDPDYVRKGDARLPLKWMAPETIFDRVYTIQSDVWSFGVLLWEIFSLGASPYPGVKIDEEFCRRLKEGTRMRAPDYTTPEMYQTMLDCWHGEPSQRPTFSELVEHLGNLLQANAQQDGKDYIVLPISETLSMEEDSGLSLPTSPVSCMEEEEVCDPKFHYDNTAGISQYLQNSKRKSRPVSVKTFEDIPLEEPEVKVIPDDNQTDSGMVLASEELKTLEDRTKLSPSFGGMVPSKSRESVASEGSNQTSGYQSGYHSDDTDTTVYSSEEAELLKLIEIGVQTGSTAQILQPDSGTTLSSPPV
Method in brief: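 IC50 values derive from nonlinear curve fitting of phospho-KDR levels measured by ELISA and interpolated from a phosphoprotein standard. Beforehand, starved HUVECs received compound (0.3% DMSO vehicle) for one hour and were activated with VEGF165 at 100 ng/mL for 5 min.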

Sequence of Met (phospho-Met, HGF-stimulated PC-3 prostate cancer cells) (P08581 25-1390): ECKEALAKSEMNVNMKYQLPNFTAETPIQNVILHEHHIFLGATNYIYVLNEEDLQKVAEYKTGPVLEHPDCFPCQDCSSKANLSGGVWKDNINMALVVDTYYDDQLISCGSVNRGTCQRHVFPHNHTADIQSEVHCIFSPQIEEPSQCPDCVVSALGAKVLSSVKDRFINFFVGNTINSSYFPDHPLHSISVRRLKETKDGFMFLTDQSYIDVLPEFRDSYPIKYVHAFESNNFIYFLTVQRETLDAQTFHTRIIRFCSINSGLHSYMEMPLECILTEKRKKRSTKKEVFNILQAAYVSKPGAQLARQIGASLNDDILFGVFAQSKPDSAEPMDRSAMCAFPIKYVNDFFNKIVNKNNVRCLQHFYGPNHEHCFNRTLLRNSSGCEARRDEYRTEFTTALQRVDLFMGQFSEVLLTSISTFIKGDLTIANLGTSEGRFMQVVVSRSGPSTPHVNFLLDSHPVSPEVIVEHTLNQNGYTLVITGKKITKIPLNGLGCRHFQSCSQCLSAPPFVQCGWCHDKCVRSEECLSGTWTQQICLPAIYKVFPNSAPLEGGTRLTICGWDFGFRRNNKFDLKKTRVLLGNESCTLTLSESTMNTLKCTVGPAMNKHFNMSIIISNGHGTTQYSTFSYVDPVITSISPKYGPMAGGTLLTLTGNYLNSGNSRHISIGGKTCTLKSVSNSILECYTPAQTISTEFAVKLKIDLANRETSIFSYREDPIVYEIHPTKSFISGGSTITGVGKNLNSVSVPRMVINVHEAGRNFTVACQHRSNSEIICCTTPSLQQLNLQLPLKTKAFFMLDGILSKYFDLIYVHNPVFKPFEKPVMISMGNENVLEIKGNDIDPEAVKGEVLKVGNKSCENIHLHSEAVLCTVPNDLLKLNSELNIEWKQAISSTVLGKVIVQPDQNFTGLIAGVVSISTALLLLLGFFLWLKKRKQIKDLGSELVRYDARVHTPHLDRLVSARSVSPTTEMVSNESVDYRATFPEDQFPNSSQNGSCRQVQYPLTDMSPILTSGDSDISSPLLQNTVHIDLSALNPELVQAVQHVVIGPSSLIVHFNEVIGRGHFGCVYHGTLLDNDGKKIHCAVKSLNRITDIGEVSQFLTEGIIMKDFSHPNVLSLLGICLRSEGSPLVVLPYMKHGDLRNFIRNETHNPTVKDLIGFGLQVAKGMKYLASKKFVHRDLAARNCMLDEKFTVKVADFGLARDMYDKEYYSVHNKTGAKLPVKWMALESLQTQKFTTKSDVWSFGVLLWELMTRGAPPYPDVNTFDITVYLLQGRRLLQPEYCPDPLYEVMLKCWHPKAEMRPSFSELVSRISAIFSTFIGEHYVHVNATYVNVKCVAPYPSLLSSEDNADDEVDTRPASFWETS

Cc1cc2c(Oc3ccc(NC(=O)c4cnc(C)c(-c5ccc(F)cc5)c4O)cc3F)ccnc2cn1 [Compound 645, N-[3-fluoro-4-[(6-methyl-1,7-naphthyridin-4-yl)oxy]phenyl]-5-(4-fluorophenyl)-4-hydroxy-6-methylpyridine-3-carboxamide] showed an IC50 [1] of under 100 nM and an IC50 [2] of under 100 nM.
COc1cnc2c(Oc3ccc(NC(=O)c4cn(C(C)C)c(C)c(-c5ccc(F)cc5)c4=O)cc3)ccnc2c1 [Compound 148, 5-(4-Fluorophenyl)-N-[4-[(7-methoxy-1,5-naphthyridin-4-yl)oxy]phenyl]-6-methyl-4-oxo-1-propan-2-ylpyridine-3-carboxamide] gave an IC50 [1] of under 100 nM and an IC50 [2] of over 300 nM.
COc1nc2c(Oc3ccc(NC(=O)c4cn(C(C)C)cc(-c5ccc(F)cc5)c4=O)cc3F)ccnc2cc1Br [Compound 131, N-[4-[(7-Bromo-6-methoxy-1,5-naphthyridin-4-yl)oxy]-3-fluorophenyl]-5-(4-fluorophenyl)-4-oxo-1-propan-2-ylpyridine-3-carboxamide] showed an IC50 [1] of under 100 nM and an IC50 [2] of over 300 nM.
For CCn1cc(C(=O)Nc2ccc(Oc3ccnc4cc(OC)c(OC)nc34)cc2)c(=O)c(-c2ccc(F)cc2)c1 [Compound 167, N-[4-[(6,7-Dimethoxy-1,5-naphthyridin-4-yl)oxy]phenyl]-1-ethyl-5-(4-fluorophenyl)-4-oxopyridine-3-carboxamide], the IC50 [1] was under 100 nM and the IC50 [2] was under 100 nM.
For Cc1nc2c(Oc3ccc(NC(=O)c4cnc(C)c(-c5ccc(F)cc5)c4O)cc3)ccnc2cc1-c1cccnc1 [Compound 616, 5-(4-Fluorophenyl)-4-hydroxy-6-methyl-N-[4-[(6-methyl-7-pyridin-3-yl-1,5-naphthyridin-4-yl)oxy]phenyl]pyridine-3-carboxamide hydrochloride], the IC50 [1] was over 300 nM and the IC50 [2] was under 100 nM.
With Cc1ncc(C(=O)Nc2ccc(Oc3ccnc4cc(-c5cnn(C(F)F)c5)cnc34)c(F)c2)c(O)c1-c1ccc(F)cc1 [Compound 610, N-[4-[[7-[1-(Difluoromethyl)pyrazol-4-yl]-1,5-naphthyridin-4-yl]oxy]-3-fluorophenyl]-5-(4-fluorophenyl)-4-hydroxy-6-methylpyridine-3-carboxamide hydrochloride] the IC50 [1] was under 100 nM and the IC50 [2] was under 100 nM.
COc1cc2nccc(Oc3ccc(NC(=O)c4cnc(C)c(-c5ccc(F)cc5)c4O)cc3F)c2nc1NS(C)(=O)=O [Compound 584, N-[3-Fluoro-4-[[6-(methanesulfonamido)-7-methoxy-1,5-naphthyridin-4-yl]oxy]phenyl]-5-(4-fluorophenyl)-4-hydroxy-6-methylpyridine-3-carboxamide] was tested, and the IC50 [1] was under 100 nM and the IC50 [2] was under 100 nM.
Work on COc1cc2nccc(Oc3ccc(NC(=O)c4cn(C(C)C)c(C)c(-c5ccc(F)cc5)c4=O)cc3F)c2nc1NS(C)(=O)=O [Compound 581, N-[3-Fluoro-4-[[6-(methanesulfonamido)-7-methoxy-1,5-naphthyridin-4-yl]oxy]phenyl]-5-(4-fluorophenyl)-6-methyl-4-oxo-1-propan-2-ylpyridine-3-carboxamide] yielded an IC50 [1] of 100 to 300 nM and an IC50 [2] of over 300 nM.
COc1cc2c(Oc3ccc(NC(=O)c4cnc(C)c(-c5ccc(F)cc5)c4O)cc3)ccnc2cn1 [Compound 644, 5-(4-fluorophenyl)-4-hydroxy-N-[4-[(6-methoxy-1,7-naphthyridin-4-yl)oxy]phenyl]-6-methylpyridine-3-carboxamide] showed an IC50 [1] of under 100 nM and an IC50 [2] of under 100 nM.
COc1cnc2c(Oc3ccc(NC(=O)c4cn(C)c(OC)c(-c5ccc(F)cc5)c4=O)cc3F)ccnc2c1 [Compound 587, N-[3-Fluoro-4-[(7-methoxy-1,5-naphthyridin-4-yl)oxy]phenyl]-5-(4-fluorophenyl)-6-methoxy-1-methyl-4-oxopyridine-3-carboxamide] was tested, and the IC50 [1] was under 100 nM and the IC50 [2] was over 300 nM.
With Cc1ncc(C(=O)Nc2ccc(Oc3ccnc4cc(C(F)(F)F)cnc34)c(F)c2)c(O)c1-c1ccc(F)cc1 [Compound 151, 5-(4-Fluorophenyl)-N-[3-fluoro-4-[[7-(trifluoromethyl)-1,5-naphthyridin-4-yl]oxy]phenyl]-4-hydroxy-6-methylpyridine-3-carboxamide] the IC50 [1] was under 100 nM and the IC50 [2] was under 100 nM.
